From article PMC11726359, “Discovery of Rezatapopt (PC14586), a First-in-Class, Small-Molecule Reactivator of p53 Y220C Mutant in Development” (ACS Medicinal Chemistry Letters, 2024)

Key:
[1] = biological target: T1, recombinant His-tag Y220C p53 DNA binding domain (Homo sapiens, UniProt P04637, Y220C); assay: TR-FRET DNA binding assay (SC150); assay type: biochemical; conditions: Table 3; concentration required to increase DNA binding by 1.5-fold
T1 construct: Y220C p53 DBD protein (amino acids #94-312); made in house
Excerpt: At the outset of our hit generation campaign, several small molecules targeting the p53 Y220C mutant protein were identified. Two notable examples, supported by crystallographic data, were the compounds from the carbazole series[6] (PhiKan83) and the iodophenol series[7] (PK1596) (Figure 1). To assess the in vitro potency of the p53 Y220C reactivators, a time-resolved fluorescence resonance energy transfer (FRET) assay was developed. In this assay, recombinant His-tag Y220C p53 DNA binding domain binds to biotin-labeled consensus DNA, and the FRET signal is measured between the allophycocyanin-conjugated anti-His-tag antibody and europium-conjugated streptavidin. The […] concentration required to increase DNA binding by 1.5-fold (SC150) could then be determined. The carbazole compound (PhiKan83) enhanced DNA binding with an SC150 of 37.2 μM. […]
Time-Resolved Fluorescence Resonance Energy Transfer (TR-FRET) Assay
DNA binding activity was measured by the TR-FRET assay. In this assay, the recombinant His6-tag Y220C p53 DNA binding domain (DBD) protein binds to biotin labeled consensus DNA. The binding of recombinant His6-tag Y220C p53 DBD protein and biotin-labeled consensus DNA is detected by the fluorescence resonance energy transfer (FRET) between allophycocyanin (APC) conjugated anti-His6 tag antibody and Europium-(Eu) conjugated Streptavidin. Test compounds, at 2 mM stock in DMSO, were diluted t hr e e-f ol d in serial dilutions in DMSO and 1.2 µL per well were added into 384-well polypropylene black plates (NUNC). Subsequently, 30 µL per well of 181 nM recombinant His6-tag Y220C p53 DBD protein (amino acids #94-312) and 9.1 nM of APC conjugated anti-His6 tag antibody (Columbia Biosciences) in ice-cold Assay Buffer 1 (50 mM Tris-HCl, pH 7.4, 75 mM KCl, 0.75 mM DTT and 0.2 mg/mL bovine serum albumin [BSA]) was added. As a background control, 30 µL of Assay Buffer 1 containing 9.1 nM of APC anti-His6 antibody (no Y220C protein) was also added into a second set of serial diluted compound plates. The samples were centrifuged at 1,200 rpm (Eppendorf 5810R plate centrifuge) for 1 minute and incubated at room temperature (20 °C) for 15 min. The samples were then incubated at 27 °C in a water bath for 48 min. Afterwards, 5 µL per well of 145 nM biotin labeled oligonucleotide from a consensus DNA p53 response element (a DNA duplex with 5’ to 3’sequence of […]
and biotin attached to the 3’ end of the complementary DNA) and 8.8 nM Eu-conjugated streptavidin (Columbia Biosciences) in Assay Buffer 2 (50 mM Tris-HCl, pH 7.4, 75 mM KCl and 0.2 mg/mL BSA) were added. The samples were centrifuged at 1,200 rpm for 1 min and incubated at room temperature (20 °C) for 20 min. Assay signals were monitored by reading excitation at 340 nm, and emission fluorescence at 615 and 665 nm, on an Envision reader (Perkin El mer). Normalized TR -FRET assay signal (Rn) was calculated by the formula:
Rn = [(A − B a − C × (D − Bd))/(D − Bd)] × (Dc − B d),
C = (Ac − B a)/(Dc − B d), […]

[2] = Toxicological studies; conditions: result in words
[3] = Pharmacokinetic study in mice; conditions: Table 3, PO, 50 mg/kg
Experimental: Pharmacokinetic parameters were evaluated in female CD-1 mice. Animals received an oral gavage dose of 50 mg/kg of the test article. The test article was formulated in a solution containing 2% hydroxypropyl
cellulose and 0.5% Tween 80 in water. Blood samples were collected at 0.5, 1, 2, 4, 7, and 24 h post dose.
Blood samples were processed into plasma, and the concentrations of the test article were determined by
LC-MS/MS. P harmacokinetic parameters were calculated using the Phoenix WinNonlin 6.3 program,
employing a non- compartmental model 200.

[4] = tested on: NUGC-3 tumor xenografts; assay: NUGC-3 tumor xenograft efficacy in nude mice; assay type: in vivo, mouse; conditions: for inhibition of tumor growth: oral, daily
Experimental: Compound 26 (rezatapopt; PC14586), which had the most favorable plasma exposure, was evaluated for its ability to inhibit the growth of NUGC-3 tumor xenografts in nude mice.
Study of C ompound 26 in NUGC-3 Xenograft
Female Balb/c nude mice, aged 4 to 6 weeks, were obtained from Envigo (Madison, WI). All mice were housed at the PMV Pharmaceuticals Vivarium. Mouse care and experimental procedures adhered to institutional guidelines for ethical use, with all research protocols approved by the Institutional Animal Care and Use Committees of PMV Pharmaceuticals. The mice were maintained at ambient temperatures of 68–72 °F, with 30–70% humidity, and a 12 -hour dark/light cycle.
NUGC-3 cells were resuspended at a concentration of 1×10^7 viable cells/mL in a 50:50 mixture of phosphate-buffered saline and Matrigel Matrix (Corning). Subsequently, 100 µL of the suspension was injected subcutaneously into the dorsal flankof the mice . Mice were selected and randomized into treatment groups based on tumor size.

[5] = tested on: TP53 Y220C mutant solid tumors; set-up: method as in doi:10.1158/1535-7163.TARG-23-LB_A25; conditions: cited from earlier work
[6] = tested on: NUGC-3, gastric cancer cell line with a TP53 Y220C mutation; assay: MTT cell proliferation assay; assay type: cell-based, human; conditions: Homo sapiens, NUGC-3, 120 h, Table 3; NUGC-3 cells, five days incubation
Experimental: We also evaluated the effects of these compounds on the growth and viability of four cancer cell lines in vitro. Two of the cell lines (NUGC-3, gastric cancer cell line with a TP53 Y220C mutation and T3M-4, pancreatic carcinoma cell line) have the TP53 Y220C mutation leading to the p53 Y220C mutant protein; SJSA-1 is a p53 WT cell line, and NUGC-3-KO is an isogenic p53 knockout cell line.[11] After incubating the cells with the compounds for five days, cell viability was measured using the 3-(4,5-dimethylthiazol-2-yl)-2,5-diphenyltetrazolium bromide (MTT) assay.
C = (Ac − B a)/(Dc − B d),
Prism (GraphPad) or XLfit software (IDBS).
Cells were seeded at an appropriate
Compounds were tested at eight concentrations with 2-fold serial dilutions. […]
with a reference wavelength of 650 nm. […]
untreated cells (control). […]

## CNC(=O)c1ccc(NCC#Cc2cc3c(N[C@@H]4CCN(C)C[C@@H]4F)cccc3n2CC(F)(F)F)c(OC)c1 [Compound 26]
[1]
  SC150: 9 nM
[2]
  safety profile in toxicological studies: favorable safety profile
[3]
  Mouse PK Exposure AUC0-last: 163.342 µg·h/mL
  Mouse PK Exposure Cmax: 16600 ng/mL
[4]; 100 mg/kg, nude mice
  tumor regression: 80%
[4]; mouse models, well-tolerated doses, result in words
  effect on established human tumor xenografts harboring TP53 Y220C: tumor inhibition and regression
[4]; 25 mg/kg, nude mice
  inhibition of tumor growth: 33%
[4]; 50 mg/kg, nude mice
  inhibition of tumor growth: 71%
[5]; heavily pretreated patients, solid tumors harboring TP53 Y220C, listed as rezatapopt
  clinical efficacy in Phase 1 clinical trials: single-agent clinical efficacy was achieved
[5]; within the efficacious dose range
  safety profile in Phase 1 clinical trials: favorable safety profile
[6]
  IC50: 504 nM
